The subject of one experiment is lettuce (Lactuca sativa). In words: Ultrasonic fogging of leaves with air nanobubble water, fresh weight. It counts as in vivo. Conditions: var. Tango, 14 days, fog from air nanobubble water, source solution 1.65 mg/L. As to the method: Seedlings of various lettuce varieties (Lactuca sativa) were exposed to ultrasonic fog generated from water that contained air nanobubbles carrying MVOCs.
Albuterol Sulfate 98.5% (Spectrum Chemical, New Brunswick, NJ, USA) was diluted in tap water at 1.65 mg/L. Five litres was then placed in a container that was pressurized by an air compressor at 1.3 bar. Gas flow from the pressurized container was directed to a nanobubble generator installed in a recirculating flow of water totaling 60 L. After a minimum of 2 hr treatment, 4 L of nanobubble treated water was removed from the recirculating system and placed in a rectangular plastic reservoir with a total capacity of 6 L. A three head ultrasonic fog generator was then placed in the reservoir, and the reservoir was placed in an enclosed plant growth chamber. Seeds of lettuce (Lactuca sativa, var. Tango) were planted in 2.5 cm square cells filled with ProMix growing media. Upon shoot emergence, seedlings were placed in the growth chamber and fog treatments began. A ‘control’ group of plants was placed in a different section of the growth chamber that was not subjected to any treatment. Growing parameters within the chambers were maintained at levels suitable for the crop, including a photoperiod of 16 hr/day. […] After 14 days, all plants were harvested and fresh weight recorded.

The subject of experiment [1] is Cannabis (Cs) apical cuttings. In words: Plant growth regulators delivered with ONB in hydroponics, plant growth. Format: in vivo, Cannabis sativa. Conditions: ONB compared to tap water as delivery system; 14 days hydroponics. As to the method: Hydroponic experiments were set up in glasshouse conditions: day temp. 25° C., night temp. 18° C., 16/8 h day/night and 150 μmol m^−2 s^−1 light intensity. Cannabis (Cs) apical cuttings were treated with Gibberellic acid A3 (GA3; Duchefa, G0907) at 12 mg/L final concentration, similar to Mansouri et al. (2011) or with DL-carnitine hydrochloride (Merck S7021474 Cas-No 461-05-2, 8.41774.0025) at 1 mM/L final concentration, as in Signem Oney-Birol (2019).
All solutions were prepared first in buckets, pH adjusted to 6.0. The liquid feed (Canna coco A+B) was added at the concentration: 4 mL of coco A and 4 mL of coco B per 1 L water; electric conductivity EC=2.0 mS/cm. Next the solutions were run through a fine bubble generator (Anzaikantetsu Co, AZ-FB-20ASVV) with a 0.75 standard litres per minute (SLPM) O2 flow and 800 L/H water flow. Each 25 L bucket was run for 30 min through the nozzle. EC and pH were checked and adjusted to the right level daily. Plants were grown in hydroponics for 14 days. Plant growth was monitored and compared to controls. Plant growth was determined by measurement of major growth parameters including plant height, whole plant fresh weight and number of stems. […]

Consider Albuterol Sulfate, for which the “Average increase in weight compared to control plants” value in the experiment on lettuce (Lactuca sativa) is listed as “over 30%”.

`C[N+](C)(C)CC(O)CC(=O)O.[Cl-]` (racemic) [DL-carnitine, DL-carnitine hydrochloride]: the “Plant height and biomass” value in experiment [1] is “Increased plant height and biomass”.

`C=C1C[C@]23C[C@@]1(O)CC[C@H]2[C@@]12C=C[C@H](O)[C@@](C)(C(=O)O1)[C@H]2[C@@H]3C(=O)O` [gibberellic acid, Gibberellic acid A3]: in experiment [1], the “Plant height and biomass” value is “Increased plant height and biomass”.

For the origin of these results see patent US20240093213A1, “PROCESSES, SYSTEMS AND MEDIA FOR DELIVERING A SUBSTANCE TO A PLANT” (EPIGENETICA LIMITED, priority 2020, published 2024).
